Data from patent US20180304191A1, “METHOD FOR THE SELECTIVE REMOVAL OF HYDROGEN SULFIDE” (BASF SE, priority 2015, published 2018).

Columns and labels:
[1] = Dynamic viscosity (Anton Paar Stabinger SVM3000 viscometer); type: physicochemical
Method: The dynamic viscosities of various compounds were measured in a viscometer (Anton Paar Stabinger SVM3000 viscometer).
In addition, the dynamic viscosities of various absorbents (without acid gas loading) were measured in the same instrument.

[2] = Thermal stability (decomposition level of the amine in acid-gas-laden absorbent); type: physicochemical; settings: 160° C., 125 h, 30% by weight amine solution
Method: A Hastelloy cylinder (10 mL) was initially charged with the absorbent (30% by weight amine solution, 8 mL) and the cylinder was closed. […] The acid gas loading of the solutions was 20 m^3 (STP)/tsolvent of CO2 and 20 m^3 (STP)/tsolvent of H2S. The decomposition level of the amines was calculated from the amine concentration measured by gas chromatography before and after the experiment.

[3] = pKA determination by titration with hydrochloric acid (pH at half-equivalence); settings: for pKA1: 1st dissociation stage; for pKA2: 2nd dissociation stage
Source text: Measurement was accomplished using a thermostated closed jacketed vessel in which the liquid was blanketed with nitrogen. The Hamilton Polylite Plus 120 pH electrode was used, which was calibrated with pH 7 and pH 12 buffer solutions.

[4] = absorbent: amine 30% by wt. in EG 70% by wt., without acid gas loading
[5] = absorbent: amine 30% by wt. in sulfolane 70% by wt., without acid gas loading

SMILES	Dynamic viscosity [1, 4] [mPa · s]	Dynamic viscosity ([1]; amine compound itself) [mPa · s]	Thermal stability (comparison in words) [2]	Dynamic viscosity [1, 5] [mPa · s]	pKA1 ([3]; 0.01 mol/kg amine, 20° C.)	pKA2 ([3]; 0.01 mol/kg amine, 20° C.)	ΔpKA1 (120-20° C.) ([3]; difference of pKA1 between 120° C. and 20° C.)	Dynamic viscosity ([1]; absorbent: amine 30% by wt. in TEG 70% by wt., without acid gas loading) [mPa · s]	pKA3 ([3]; 0.01 mol/kg amine, 20° C., 3rd dissociation stage)
CCC(N)(CO)CO [AEPD, 2-amino-2-ethylpropane-1,3-diol, reference compound]	25.3	1844	–	–	–	–	–	–	–
CN(C)CCN(C)CCN(C)C [PMDETA, pentamethyldiethylenetriamine]	–	1.0	–	–	10.3	8.8	–	15.3	6.5
CN(C)CCOCCN(C)C [BDMAEE, bis(2-(N,N-dimethylamino)ethyl) ether]	12.3	0.9	–	3.6	9.7	8.2	–	–	–

The next lines start with results.

Dynamic viscosity [1, 4] [mPa · s]	Dynamic viscosity ([1]; amine compound itself) [mPa · s]	Thermal stability (comparison in words) [2]	Dynamic viscosity [1, 5] [mPa · s]	pKA1 ([3]; 0.01 mol/kg amine, 20° C.)	pKA2 ([3]; 0.01 mol/kg amine, 20° C.)	ΔpKA1 (120-20° C.) ([3]; difference of pKA1 between 120° C. and 20° C.)	SMILES	Dynamic viscosity ([1]; absorbent: amine 30% by wt. in TEG 70% by wt., without acid gas loading) [mPa · s]	pKA3 ([3]; 0.01 mol/kg amine, 20° C., 3rd dissociation stage)
17.2	16.9	–	–	–	–	–	CC(C)(C)NCCOCCO [TBAEE, 2-(2-tert-butylaminoethoxy)ethanol, reference compound]	–	–
–	1.5	higher thermal stability than MDEA	5.5	10.4	8.4	2.4	CN(C)CCOCCNC(C)(C)C [TBAEEDA, 2-(2-tert-butylaminoethoxy)ethyl-N,N-dimethylamine]	–	–
